Reference: ChEMBL document CHEMBL3885881, “DrugMatrix”

Organism: Rattus norvegicus
Experiment: DrugMatrix - Regimen: Daily Repeat
Type: toxicity, organism-based, Sprague-Dawley
Parameters: regimen Daily Repeat, gender Male, age 6-8 weeks
Settings: in vivo, po, route oral GAVAGE, […]; for URIC ACID / ALANINE AMINOTRANSFERASE / ALBUMIN / ALKALINE PHOSPHATASE / ASPARTATE AMINOTRANSFERASE / BLOOD UREA NITROGEN / CARBON DIOXIDE / CHLORIDE / CHOLESTEROL / CREATINE PHOSPHOKINASE / CREATININE / GLUCOSE / LACTATE DEHYDROGENASE / LIPASE / PHOSPHORUS / POTASSIUM / SODIUM / TOTAL BILIRUBIN / TOTAL PROTEIN: tissue Plasma; for ABSOLUTE BASOPHIL / ABSOLUTE EOSINOPHIL / ABSOLUTE LYMPHOCYTE / ABSOLUTE MONOCYTE / ABSOLUTE SEGMENTED NEUTROPHIL / BASOPHIL / EOSINOPHIL / ERYTHROCYTE COUNT / HEMATOCRIT / HEMOGLOBIN / LEUKOCYTE COUNT / LYMPHOCYTE / MEAN CORPUSCULAR HEMOGLOBIN / MEAN CORPUSCULAR HEMOGLOBIN CONCENTRATION / MONOCYTE / NEUTROPHIL / NUCLEATED RED BLOOD CELLS / PLATELET COUNT: tissue Blood
[1] = 0.2 mg/kg, 120 h, dose level Low, time 5 day
[2] = 19 mg/kg, 72 h, dose level High, time 3 day
[3] = 19 mg/kg, 120 h, dose level High, time 5 day

CCOC(=O)C1=C(COCCN)NC(C)=C(C(=O)OC)C1c1ccccc1Cl (stereo unspecified) [AMLODIPINE]
URIC ACID (0.2 mg/kg, 72 h, dose level Low, time 3 day): 1.4 mg/dL | ABSOLUTE BASOPHIL [1]: 0 CELLS/uL | ABSOLUTE EOSINOPHIL [1]: 54 CELLS/uL | ABSOLUTE LYMPHOCYTE [1]: 12693.33 CELLS/uL | ABSOLUTE MONOCYTE [1]: 54 CELLS/uL | ABSOLUTE SEGMENTED NEUTROPHIL [1]: 1132 CELLS/uL | BASOPHIL [1]: 0% | EOSINOPHIL [1]: 0.33% | ERYTHROCYTE COUNT [1]: 5.55 x10E6/uL | HEMATOCRIT [1]: 34.53% | HEMOGLOBIN [1]: 13.3 G/DL | LEUKOCYTE COUNT [1]: 13.93 x10E3/uL | LYMPHOCYTE [1]: 91.33% | MEAN CORPUSCULAR HEMOGLOBIN [1]: 23.97 pg | MEAN CORPUSCULAR HEMOGLOBIN CONCENTRATION [1]: 38.5 G/DL | MONOCYTE [1]: 0.33% | NEUTROPHIL [1]: 8% | NUCLEATED RED BLOOD CELLS [1]: 0.33 /100WBC | PLATELET COUNT [1]: 1051.33 x10E3/uL | ALANINE AMINOTRANSFERASE [1]: 66 u/L | ALBUMIN [1]: 4.1 G/DL | ALKALINE PHOSPHATASE [1]: 350 u/L | ASPARTATE AMINOTRANSFERASE [1]: 82 u/L | BLOOD UREA NITROGEN [1]: 16 mg/dL | CARBON DIOXIDE [1]: 30.33 mmol/L | CHLORIDE [1]: 99.33 MEQ/L | CHOLESTEROL [1]: 64.33 mg/dL | CREATINE PHOSPHOKINASE [1]: 209.67 u/L | CREATININE [1]: 0.14 mg/dL | GLUCOSE [1]: 156.33 mg/dL | LACTATE DEHYDROGENASE [1]: 144.67 u/L | LIPASE [1]: 19.33 u/L | PHOSPHORUS [1]: 10.4 mg/dL | POTASSIUM [1]: 5.81 MEQ/L | SODIUM [1]: 144.97 MEQ/L | TOTAL BILIRUBIN [1]: 0.1 mg/dL | TOTAL PROTEIN [1]: 5.67 G/DL | URIC ACID [1]: 0.87 mg/dL | ABSOLUTE BASOPHIL [2]: 0 CELLS/uL | ABSOLUTE EOSINOPHIL [2]: 0 CELLS/uL | ABSOLUTE LYMPHOCYTE [2]: 15467 CELLS/uL | ABSOLUTE MONOCYTE [2]: 0 CELLS/uL | ABSOLUTE SEGMENTED NEUTROPHIL [2]: 1533 CELLS/uL | BASOPHIL [2]: 0% | EOSINOPHIL [2]: 0% | ERYTHROCYTE COUNT [2]: 5.69 x10E6/uL | HEMATOCRIT [2]: 35.43% | HEMOGLOBIN [2]: 13.97 G/DL | LEUKOCYTE COUNT [2]: 17 x10E3/uL | LYMPHOCYTE [2]: 90.67% | MEAN CORPUSCULAR HEMOGLOBIN [2]: 24.53 pg | MEAN CORPUSCULAR HEMOGLOBIN CONCENTRATION [2]: 39.4 G/DL | MONOCYTE [2]: 0% | NEUTROPHIL [2]: 9.33% | NUCLEATED RED BLOOD CELLS [2]: 0 /100WBC | PLATELET COUNT [2]: 1141 x10E3/uL | ALANINE AMINOTRANSFERASE [2]: 69.67 u/L | ALBUMIN [2]: 3.77 G/DL | ALKALINE PHOSPHATASE [2]: 410 u/L | ASPARTATE AMINOTRANSFERASE [2]: 81.67 u/L | BLOOD UREA NITROGEN [2]: 14 mg/dL | CARBON DIOXIDE [2]: 29.67 mmol/L | CHLORIDE [2]: 101.67 MEQ/L | CHOLESTEROL [2]: 68 mg/dL | CREATINE PHOSPHOKINASE [2]: 240.33 u/L | CREATININE [2]: 0.16 mg/dL | GLUCOSE [2]: 161 mg/dL | LACTATE DEHYDROGENASE [2]: 103.33 u/L | LIPASE [2]: 10 u/L | PHOSPHORUS [2]: 10.33 mg/dL | SODIUM [2]: 141.27 MEQ/L | TOTAL BILIRUBIN [2]: 0.23 mg/dL | TOTAL PROTEIN [2]: 5.6 G/DL | URIC ACID [2]: 1.43 mg/dL | ABSOLUTE BASOPHIL [3]: 0 CELLS/uL | ABSOLUTE EOSINOPHIL [3]: 0 CELLS/uL | ABSOLUTE LYMPHOCYTE [3]: 11777 CELLS/uL | ABSOLUTE MONOCYTE [3]: 51 CELLS/uL | ABSOLUTE SEGMENTED NEUTROPHIL [3]: 838.67 CELLS/uL | BASOPHIL [3]: 0% | EOSINOPHIL [3]: 0% | ERYTHROCYTE COUNT [3]: 5.63 x10E6/uL | HEMATOCRIT [3]: 34.73% | HEMOGLOBIN [3]: 13.7 G/DL | LEUKOCYTE COUNT [3]: 12.67 x10E3/uL | LYMPHOCYTE [3]: 92.67% | MEAN CORPUSCULAR HEMOGLOBIN [3]: 24.33 pg | MEAN CORPUSCULAR HEMOGLOBIN CONCENTRATION [3]: 39.47 G/DL | MONOCYTE [3]: 0.33% | NEUTROPHIL [3]: 7% | NUCLEATED RED BLOOD CELLS [3]: 0 /100WBC | PLATELET COUNT [3]: 1057.67 x10E3/uL | ALANINE AMINOTRANSFERASE [3]: 95 u/L | ALBUMIN [3]: 4 G/DL | ALKALINE PHOSPHATASE [3]: 359.33 u/L | ASPARTATE AMINOTRANSFERASE [3]: 100 u/L | BLOOD UREA NITROGEN [3]: 16 mg/dL | CARBON DIOXIDE [3]: 34.67 mmol/L | CHLORIDE [3]: 101.5 MEQ/L | CHOLESTEROL [3]: 68.33 mg/dL | CREATINE PHOSPHOKINASE [3]: 177.67 u/L | CREATININE [3]: 0.13 mg/dL | GLUCOSE [3]: 165 mg/dL | LACTATE DEHYDROGENASE [3]: 96.67 u/L | LIPASE [3]: 12 u/L | PHOSPHORUS [3]: 8.93 mg/dL | POTASSIUM [3]: 5.34 MEQ/L | SODIUM [3]: 145.05 MEQ/L | TOTAL BILIRUBIN [3]: 0.1 mg/dL | TOTAL PROTEIN [3]: 5.9 G/DL | URIC ACID [3]: 0.37 mg/dL
